Assay results: patent US20070248543A1 (ZGene A/S, priority 2004, published 2007)
Where “and” joins values, the source holds several entries; their conditions need not be identical. Equal values may be shown once. Read-outs that look alike come from different tables or passages of the source.

Key:
[1] = tested on: GgdCK1; test: Steady state kinetics of purified recombinant GgdCK1; type: biochemical, Gallus gallus
Experimental: (§1) Purification of the Recombinant Enzymes. Transformants (KY895 cells transfected with PZG469 (GgcCK1) and PZG657 (GgdCK2)) were grown in LB medium containing […] ampicillin to A600 0.5-0.6, and the expression was induced with […] IPTG for 4 h at 25° C. […] The cells were homogenized using a French Press, subjected to centrifugation at 12,000×g for 30 minutes (4° C.), filtered through a […] Whatman glass microfiber filter and a […] cellulose acetate filter, and loaded onto the column (2 ml column packed with Glutathione-Sepharose 4 FF, Pharmacia) equilibrated in binding buffer A. Unbound material was removed by washing with 10 column volumes of buffer A. Subsequently the column was washed with 5 ml buffer A containing 10 mM ATP/MgCl2, and incubated for 1 h at room temperature and then 30 min at 4° C. to remove strongly bound contaminating proteins. Afterwards the column was washed again with 10 ml of buffer A and 2 ml of thrombin (50 U/ml) solution were applied on the column. The column was gently shaken overnight at 4° C. to cleave the recombinant protein from the GST-tag. Pure protein was eluted from the column in buffer A. Uncleaved fusion protein was eluted with buffer B (50 mM Tris-HCl pH 8, 10% glycerol, 0,1 % Triton X-100, 10 mM gluthatione reduced). Before storage of enzyme-containing fractions at −80° C., glycerol, Triton X-100, and dithiothreitol were added to 8%, 1% and 1 mM, respectively. Proteins were analyzed on Agilent 2100 Bioanalyzer using Protein Assay Chips.
Enzyme Assays. Bacteria or cell lines were grown as described, harvested and stored at −80° C. until activity testing. Cells were submitted to brief sonication in extraction buffer (50 mM Tris/HCl pH 7.5, 1 mM DTT, 10% (v/v) glycerol, 1% (v/v) Triton X-100, protease inhibitor cocktail Complete™ from Roche Diagnostics). Deoxyribonucleoside kinase activities were determined by initial velocity measurements based on four time samples by the DE-81 filter paper assay using tritium-labelled nucleoside substrates. App. 20 μg extracts were used in the assays. […] One unit of deoxyribonucleoside kinase activity is defined as 1 μmol of the corresponding monophosphate formed per minute. The obtained data were fitted to the Michaelis-Menten equation v=Vmax·[S]/(Km+[S]).

[2] = biological target: HsdCK (Homo sapiens, UniProt P27707); details: cited from earlier work; for Kcat / Vmax: literature data
HsdCK, sequence (P27707 whole entry): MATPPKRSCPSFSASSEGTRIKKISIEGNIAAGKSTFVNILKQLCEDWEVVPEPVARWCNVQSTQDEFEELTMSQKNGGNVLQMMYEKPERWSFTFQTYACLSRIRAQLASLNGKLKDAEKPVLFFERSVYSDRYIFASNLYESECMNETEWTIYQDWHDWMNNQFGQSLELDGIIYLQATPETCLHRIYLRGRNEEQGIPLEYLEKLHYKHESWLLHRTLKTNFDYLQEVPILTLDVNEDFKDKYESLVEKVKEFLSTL

[3] = tested on: MCF-7 (breast cancer cell line); test: Cell proliferation assay (XTT cytotoxicity) of retrovirus-transduced MCF-7 cells; type: cell-based; details: Homo sapiens, MCF7, read-out: IC50 value of ara-G, MCF-7 parental cell line
Experimental: HE 293 T packaging cells (ATCC CRL-11268) were cultured at 37° C. in OPTIMEM 1 medium (Life Technologies, Inc.) The constructed pLCXSN plasmid vector was transfected into the packaging cells using LipofectAMINE PLUS (Life Technologies, Inc.) according to the protocol provided by the supplier. The medium from the transfected cells was collected 48 hours after transfection, filtered through a 0.45 µm filter, pelleted by ultracentrifugation (50.000×g, 90 minutes at 4° C.) and dissolved in DMEM (Cambrex, Blo Whittaker Cat. No. 12-741-F).
The virus containing medium was subsequently used to transduce the cancer cell lines with a MOI of 5. […]
Cells were plated at densities range of 1.500-3.500 cells/well in 96-well plates coated with Poly-L-lysine (Sigma Cat. No. P6282) Gemcitabine (obtained from Orifarm A/S—DK) was added after 24 hours of incubation at 37° C., 5% CO2, and the medium containing the nucleoside analog. […] The IC50 value of the investigated drug/compound was calculated as the mean of these experiments using SigmaPlot® (SPSS Science, Dyrberg Trading—DK).
The sensitivity of the untransduced cells, and of the cells transduced with either the retroviral vector alone ore the vector containing chicken kinases for Gemcitabine and Ara-G was determined.

[4] = biological target: T1, human dGK (Homo sapiens, UniProt Q16854); details: Zhu et al. 1998; cited from earlier work
T1 sequence (Q16854 40-277): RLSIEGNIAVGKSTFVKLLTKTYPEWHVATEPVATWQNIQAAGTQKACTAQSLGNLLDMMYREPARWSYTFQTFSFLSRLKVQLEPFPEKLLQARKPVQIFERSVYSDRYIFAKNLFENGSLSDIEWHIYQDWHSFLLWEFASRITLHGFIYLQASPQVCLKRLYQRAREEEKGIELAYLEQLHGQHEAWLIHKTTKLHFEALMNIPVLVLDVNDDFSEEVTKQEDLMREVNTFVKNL

[5] = biological target: GgdCK2 (Gallus gallus, UniProt Q5ZJM7); test: Steady state kinetics of purified recombinant GgdCK2
GgdCK2, sequence (Q5ZJM7 whole entry): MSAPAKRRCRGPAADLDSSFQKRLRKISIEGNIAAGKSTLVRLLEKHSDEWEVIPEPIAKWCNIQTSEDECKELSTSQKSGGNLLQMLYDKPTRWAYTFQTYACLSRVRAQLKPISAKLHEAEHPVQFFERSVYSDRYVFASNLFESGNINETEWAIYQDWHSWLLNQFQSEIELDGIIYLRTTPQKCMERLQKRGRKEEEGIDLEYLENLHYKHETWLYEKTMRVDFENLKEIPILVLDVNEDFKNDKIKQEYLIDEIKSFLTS
Experimental: as §1
Enzyme Assays. Bacteria or cell lines were grown as described, harvested and stored at −80° C. until activity testing. Cells were submitted to brief sonication in extraction buffer (50 mM Tris/HCl pH 7.5, 1 mM DTT, 10% (v/v) glycerol, 1% (v/v) Triton X-100, protease inhibitor cocktail Complete™ from Roche Diagnostics). Deoxyribonucleoside kinase activities were determined by initial velocity measurements based on four time samples by the DE-81 filter paper assay using tritium-labelled nucleoside substrates. App. 20 μg extracts were used in the assays. […]

[6] = tested on: deoxyribonucleoside kinases in DT 40 chicken cell line crude extract; test: Deoxyribonucleoside kinase activity in crude extracts of DT 40 cells (DE-81 filter paper assay); type: biochemical; details: substrate at 200 μM; triplicates, mean with standard deviation
Experimental: Deoxribonucleoside kinase activities in DT 40 chicken cell line DT 40 cells were grown in RPMI-1640 medium (Gibco) supplemented with 10% foetal calf serum, 1% chicken serum, 2 mM L-glutamine, 10 uM mercaptoethanol and penicillin-streptomycin mixture […], harvested and stored at −80° C. until activity testing. Cells were submitted to brief sonication in extraction buffer (50 mM Tris/HCl pH 7.5, 1 mM DTT, 10% (v/v) glycerol, 1% (v/v) Triton X-100, protease inhibitor cocktail (Complete™ from Roche Diagnostics). Deoxyribonucleoside kinase activities were determined in the DT 40 extracts by initial velocity measurements based on four time samples by the DE-81 filter paper assay using tritium-labelled nucleoside substrates. App. 20 μg extracts were used in the assays. The assay was done as described by Munch-Petersen et al. [Munch-Petersen, B., Knecht, W., Lenz, C., Sondergaard, L. & Piskur, J: Functional expression of a multisubstrate deoxyribonucleoside kinase from Drosophila melanogaster and its C-terminal deletion mutants; J.Biol.Chem. 2000 275 6673-6679].

[7] = tested on: deoxyribonucleoside kinases in MCF-7 cell crude extract; test: Deoxyribonucleoside kinase activity in crude extracts of MCF-7 cells; type: biochemical, human; details: substrate at 200 μM; triplicates, mean with standard deviation
Experimental: Cells were submitted to brief sonication in extraction buffer (50 mM Tris/HCl pH 7.5, 1 mM DTT, 10% (v/v) glycerol, 1% (v/v) Triton X-100, protease inhibitor cocktail (CompleteTM from Roche Diagnostics). […] App. 20 μg extracts were used in the assays. The assay was done as described by Munch-Petersen et al. [Munch-Petersen, B., Knecht, W., Lenz, […]: Functional expression of a multisubstrate deoxyribonucleoside kinase from Drosophila melanogaster and its C-terminal deletion mutants; J.Biol.Chem. 2000 275 6673-6679].

[8] = tested on: deoxyribonucleoside kinase expressed in E. coli TOP10 extracts; test: Deoxyribonucleoside kinase activity in extracts of transformed TOP10 cells; type: biochemical; details: approximate
[9] = data from Bohman 1988 and Habteyesus 1991, read-out: Km

| Compound | Kcat [1] [s⁻¹] | Km [1] | Vmax [1] [nm/min/mg] | Deoxyribonucleoside kinase activity in crude extract of DT 40 cells [6] [mU/mg] | Deoxyribonucleoside kinase activity in crude extract of MCF-7 cells [7] [mU/mg] | other results |
| --- | --- | --- | --- | --- | --- | --- |
| Nc1nc(Cl)nc2c1ncn2[C@H]1C[C@H](O)[C@@H](CO)O1 [CdA, 2-chloro-2′-deoxyadenosine] | 0.64 | 3.3 ± 0.4 µM | 1273 ± 38 |  |  |  |
| Nc1nc(F)nc2c1ncn2[C@@H]1O[C@H](CO)[C@@H](O)[C@@H]1O [F-araA, 2-Fluoroadenine 9-beta-D-Arabinofuranoside] |  |  |  |  |  | Km ([2]; data from Bohman 1988 and Habteyesus 1991): 200 µM |
| Nc1ccn([C@@H]2O[C@H](CO)[C@@H](O)C2(F)F)c(=O)n1 [Gemcitabine, 2′,2′-difluorodeoxycytidine] | 1.37 | 6.3 ± 0.5 µM | 2712 ± 357 |  |  | Km [2, 9]: 60 µM; Kcat [2]: 0.05 s⁻¹; Vmax [2]: 100 nm/min/mg |
| Nc1nc2c(ncn2[C@@H]2O[C@H](CO)[C@@H](O)[C@@H]2O)c(=O)[nH]1 [ara-G, 9-beta-D-arabinofuranosylguanine] |  |  |  |  |  | IC50 [3]: 1580 ± 158 µM; Km [4]: 8 µM; relative phosphorylation higher by recombinant human dGK than by recombinant human dCK [4]: 76 times |
| Nc1ccn([C@@H]2O[C@H](CO)[C@@H](O)[C@@H]2O)c(=O)n1 [araC, cytidine-arabinoside] | 0.44 | 15.3 ± 2.3 µM | 878 ± 33 |  |  | Kcat [5]: 0.34 s⁻¹; Km [5]: 1470 ± 664 µM; Vmax [5]: 649 ± 267 nm/min/mg |
| Nc1ncnc2c1ncn2[C@H]1C[C@H](O)[C@@H](CO)O1 [dAdo, deoxyadenosine] |  | 79 µM and 82 µM |  | 0.1 ± 0.01 | 0.05 ± 0.00 |  |
| Nc1ccn([C@H]2C[C@H](O)[C@@H](CO)O2)c(=O)n1 [dCyd, deoxycytidine] | 0.30 | 4.8 µM | 589 ± 34 | 0.09 ± 0.01 | 0.01 ± 0.00 |  |
| Nc1nc2c(ncn2[C@H]2C[C@H](O)[C@@H](CO)O2)c(=O)[nH]1 [dGuo, deoxyguanosine] | 0.20 | 61.8 ± 11.1 µM | 394 ± 37 | 0.09 ± 0.00 | 0.01 ± 0.00 | Km [2, 9]: 100 µM; Kcat [2]: 0.33 s⁻¹; Vmax [2]: 600 nm/min/mg; Km [4]: 7.6 µM |
| Cc1cn([C@H]2C[C@H](O)[C@@H](CO)O2)c(=O)[nH]c1=O [dThd, thymidine] |  |  |  | 0.1 ± 0.03 | 0.07 ± 0.00 |  |
| GgdCK1: Gallus gallus deoxycytidine kinase 1, 257 amino acid residues, SEQ ID No. 2 |  |  |  |  |  | dCyd phosphorylation efficiency [8]: ~8 mU |
